Data as given in patent publication US8574604B2, “Methods and compositions for the delivery of biologically active agents” (Interface Biologics, Inc., priority 2005, dated 2013).

Test: UV/Vis measurement of Methyl Violet complexation by CyD-OF
Assay type: physicochemical
Conditions: Methyl Violet 0.01 mg/mL in DMSO; decrease in absorbance indicates complexation
Procedure: CyD-OF (3a) ([…]) was dissolved in DMSO (75 μL). A solution of Methyl Violet (MV, 2.8 mg) in DMSO (28 mL) was prepared at 0.1 mg/mL. One mL of Methyl Violet solution was further diluted with DMSO (10 mL) to form a 0.01 mg/mL solution. The CyD-OF solution (75 μL) was added dropwise to a solution of MV (500 μL) in a 4 mL glass vial over the course of ten minutes. This solution was sealed and left in the dark for 12 hours. A UV/Vis measurement of the Methyl Violet solution at 0.01 mg/mL was taken (A (591 nm)=0.96) as control. The UV/Vis spectrum of the CyD-OF was measured at A (591 nm)=0.63, indicating the intensity of the guest molecules evidently to change upon the addition of molecular receptors. Upon complexation the absorbance decreased, confirming the formation of a complex. A control solution was also prepared.

UV/Vis absorbance A (591 nm): 0.96
Substance: Methyl Violet
